ChEMBL document CHEMBL1201862, “PubChem BioAssay data set” (2004)
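Cells were grown in 96-well plates and exposed to each compound for 48 hours at five concentrations; endpoints were interpolated linearly between bracketing concentrations, or set to the highest concentration if not reached. Here, GI50 denotes the concentration required for 50% inhibition of growth.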 The source made the active and inactive calls. Rule as the data show it: active = GI50 up to about 1.1 µM and inactive = higher.

How the values were obtained:
Assay in all cases: DTP human tumour cell line panel, 48 h
SK-MEL-5 = test system: SK-MEL-5
HL-60 = test system: HL-60
COLO 205 = test system: COLO 205
NCI/ADR-RES = test system: NCI/ADR-RES
HT-29 = test system: HT-29
SK-MEL-2 = test system: SK-MEL-2
OVCAR-4 = test system: OVCAR-4
SF-295 = test system: SF-295
DU-145 = test system: DU-145
Hs-578T = test system: Hs-578T
UO-31 = test system: UO-31
OVCAR-8 = test system: OVCAR-8
HOP-92 = test system: HOP-92
TK-10 = test system: TK-10
NCI-H226 = test system: NCI-H226
MDA-N = test system: MDA-N
HCT-116 = test system: HCT-116
SK-MEL-28 = test system: SK-MEL-28
CCRF-CEM = test system: CCRF-CEM

Compound | GI50 (SK-MEL-5) | GI50 (HL-60) | GI50 (COLO 205) | GI50 (NCI/ADR-RES) | GI50 (HT-29) | GI50 (SK-MEL-2) | GI50 (OVCAR-4) | GI50 (SF-295) | GI50 (DU-145) | GI50 (Hs-578T) | GI50 (UO-31) | GI50 (OVCAR-8) | GI50 (HOP-92) | GI50 (TK-10) | GI50 (NCI-H226) | GI50 (MDA-N) | GI50 (HCT-116) | GI50 (SK-MEL-28) | GI50 (CCRF-CEM)
O=C(NC(CS)C(=O)O)c1cccc2c(=O)c3ccccc3[nH]c12 (stereo not given) | > 100 µM (inactive) | > 100 µM (inactive) | > 100 µM (inactive) | > 100 µM (inactive) | 83.4 µM (inactive) | > 100 µM (inactive) | > 100 µM (inactive) | > 100 µM (inactive) | > 100 µM (inactive) | > 100 µM (inactive) | > 100 µM (inactive) | > 100 µM (inactive) | > 100 µM (inactive) | > 100 µM (inactive) | > 100 µM (inactive) | > 100 µM (inactive) | > 100 µM (inactive) | > 100 µM (inactive) | 
COc1ccc2c(c1)[C@@]13CCN4CC5=CCO[C@H]6CC(=O)N2[C@H]1[C@H]6[C@H]5C[C@H]43 | > 100 µM (inactive) | 18.1 µM (inactive) | 84.9 µM (inactive) | 47.2 µM (inactive) | 37.2 µM (inactive) | > 100 µM (inactive) | > 100 µM (inactive) | 70 µM (inactive) | > 100 µM (inactive) | 33.7 µM (inactive) | > 100 µM (inactive) | 59.2 µM (inactive) | 95.7 µM (inactive) | 76.6 µM (inactive) | 0.178 µM (active) | > 100 µM (inactive) | > 100 µM (inactive) | 80.5 µM (inactive) | 88.5 µM (inactive)
CCOC(=O)Nc1nc(-c2ccccc2)c(C)s1 | > 100 µM (inactive) | 11.1 µM (inactive) | 96.6 µM (inactive) | 59 µM (inactive) | 48.6 µM (inactive) | > 100 µM (inactive) | 81.5 µM (inactive) | > 100 µM (inactive) | 52.6 µM (inactive) | > 100 µM (inactive) | 60 µM (inactive) | > 100 µM (inactive) | 11.7 µM (inactive) | > 100 µM (inactive) | > 100 µM (inactive) | > 100 µM (inactive) | 88.7 µM (inactive) | > 100 µM (inactive) | 31.5 µM (inactive)
NS(=O)(=O)c1ccc(NC(=O)Nc2ccccc2F)cc1 | > 100 µM (inactive) | > 100 µM (inactive) | > 100 µM (inactive) | > 100 µM (inactive) | 76 µM (inactive) | > 100 µM (inactive) | > 100 µM (inactive) | 0.243 µM (active) | > 100 µM (inactive) | > 100 µM (inactive) | 41.7 µM (inactive) | > 100 µM (inactive) | > 100 µM (inactive) | > 100 µM (inactive) | > 100 µM (inactive) | > 100 µM (inactive) | > 100 µM (inactive) | > 100 µM (inactive) | 
CCCCOP(=O)(OCCCC)C(NS(=O)(=O)c1ccccc1)(C(=O)OCC)C(F)(F)F (stereo not given) | 18.1 µM (inactive) | 19.3 µM (inactive) | 19.5 µM (inactive) | 26 µM (inactive) | 40 µM (inactive) |  | 27.7 µM (inactive) | 25.8 µM (inactive) | 45.3 µM (inactive) | 54.8 µM (inactive) | > 100 µM (inactive) | 40.1 µM (inactive) | 23.8 µM (inactive) | 33.9 µM (inactive) | 27.6 µM (inactive) | 37.2 µM (inactive) | 27.4 µM (inactive) | 34.1 µM (inactive) | 27.2 µM (inactive)
Nc1nc(-c2ccccc2)c(CC(=O)O)s1 | > 100 µM (inactive) | 20 µM (inactive) | > 100 µM (inactive) | > 100 µM (inactive) | > 100 µM (inactive) | > 100 µM (inactive) | > 100 µM (inactive) | > 100 µM (inactive) | > 100 µM (inactive) | > 100 µM (inactive) | > 100 µM (inactive) | > 100 µM (inactive) | > 100 µM (inactive) | > 100 µM (inactive) | > 100 µM (inactive) | > 100 µM (inactive) | > 100 µM (inactive) | > 100 µM (inactive) | 
CC(C)CCn1c(=O)c2c(=O)[nH][nH]c2c2ccccc21 | > 100 µM (inactive) | > 100 µM (inactive) | > 100 µM (inactive) | > 100 µM (inactive) | > 100 µM (inactive) |  | > 100 µM (inactive) | > 100 µM (inactive) | > 100 µM (inactive) | > 100 µM (inactive) | > 100 µM (inactive) | > 100 µM (inactive) | > 100 µM (inactive) | > 100 µM (inactive) | > 100 µM (inactive) | > 100 µM (inactive) | > 100 µM (inactive) | > 100 µM (inactive) | > 100 µM (inactive)
O=C1C2SC34c5c2c2ccccc2n5CCC3CCCN14 (stereo not given) | > 100 µM (inactive) | > 100 µM (inactive) | > 100 µM (inactive) | > 100 µM (inactive) | > 100 µM (inactive) | 74.6 µM (inactive) | 37.5 µM (inactive) | 55.2 µM (inactive) | > 100 µM (inactive) | 38.1 µM (inactive) | > 100 µM (inactive) | 83.8 µM (inactive) | 34.9 µM (inactive) | 25.9 µM (inactive) | > 100 µM (inactive) | > 100 µM (inactive) | > 100 µM (inactive) | > 100 µM (inactive) | 
COC(=O)[C@@H]1[C@H](OC(C)=O)CCC2[C@@]3(C[C@@H](c4ccoc4)O[C@@H]3OC)[C@H](C)CC[C@]21C(=O)OC (stereo not given in full) | > 25 µM (inactive) | 19 µM (inactive) | > 25 µM (inactive) | > 25 µM (inactive) | > 25 µM (inactive) | > 25 µM (inactive) | > 25 µM (inactive) | > 25 µM (inactive) | > 25 µM (inactive) | > 25 µM (inactive) | > 25 µM (inactive) | > 25 µM (inactive) | > 25 µM (inactive) | > 25 µM (inactive) | > 25 µM (inactive) | > 25 µM (inactive) | > 25 µM (inactive) |  | > 25 µM (inactive)
O=C(Nc1ccc(Br)cc1)c1c(-c2ccccc2)c2ccc(O)cc2oc1=O | > 10 µM (inactive) | > 10 µM (inactive) | > 10 µM (inactive) | > 10 µM (inactive) | > 10 µM (inactive) | > 10 µM (inactive) | > 10 µM (inactive) | > 10 µM (inactive) | > 10 µM (inactive) | > 10 µM (inactive) | > 10 µM (inactive) | > 10 µM (inactive) | > 10 µM (inactive) | > 10 µM (inactive) | > 10 µM (inactive) | > 10 µM (inactive) |  | > 10 µM (inactive) | > 10 µM (inactive)
Nc1cccc2cc(Cl)cnc12 | > 100 µM (inactive) | 22.8 µM (inactive) | > 100 µM (inactive) | > 100 µM (inactive) | > 100 µM (inactive) |  | > 100 µM (inactive) | > 100 µM (inactive) | > 100 µM (inactive) | 36.3 µM (inactive) | 26.7 µM (inactive) | > 100 µM (inactive) | > 100 µM (inactive) | > 100 µM (inactive) | > 100 µM (inactive) | > 100 µM (inactive) | > 100 µM (inactive) | > 100 µM (inactive) | 16.1 µM (inactive)
